According to patent publication US20030186943A1, “Substituted gamma-phenyl-delta-lactams and uses related thereto” (Inflazyme Pharmaceuticals Ltd., priority 1998, published 2003):
Where two headings read alike, the source gives them in different places.

How the values were obtained:
[1] = system: primary human neutrophils; assay: Generation of reactive oxygen species by fMLP-activated neutrophils (luminol-enhanced chemiluminescence); format: cell-based; details: Neutrophil
In short: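 Fresh primary human neutrophils (5×10^6 cells/mL) preincubated 30 min at 37° C with compound in Ca^2+-containing HBSS pH 7.4, then stimulated with 1 μM fMLP in presence of 1 μM luminol. Chemiluminescence integrated over 30 min; IC50 from non-linear regression versus 0.25% DMSO control.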

[2] = molecular target: T1, cAMP phosphodiesterase 3 from human platelets (Homo sapiens, UniProt Q14432); assay: Inhibition of cAMP phosphodiesterase 3 from human platelets; format: biochemical; details: for inhibition at 100 µM: PDE3
T1 construct: from tissue; host or cells: human platelets, cytoplasmic extract
In short: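 Partially purified human platelet extract used as PDE3 source with cAMP as substrate, so cGMP-preferring PDE2 and PDE5 present in platelets go undetected. IBMX served as positive control.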

[3] = system: IFN-gamma production in concanavalin A stimulated primary human CD4+ T-cells; assay: IFN-gamma production (Th1 profile) in concanavalin A stimulated primary human CD4+ T-cells; format: cell-based; details: T-cell, 10 μg/mL Concanavalin A, 48 hours, X marks this range, read-out: INF-GAMMA IC50 RANGE (μM) 0.2-2.0
Description: The assay on the primary human T-cells involves their activation by concanavalin A (conA); (Sigma, Catalogue No. C 5275), followed by ELISA detection for cytokines for either profile. In the case of Th1-profiles, IL-2 and INF-γ are used as benchmarks while IL-10 is the indicator for a Th2-profile. Biologically, these indicators are useful in that IL-2 is the major T-cell mitogen while IL-10 represents a powerful yet selective immunosuppressive agent.
Approximately 60 cc of whole human blood was collected into ACD anti-coagulant vacutainer tubes. 15 mL Ficoll Paque 1077 was aliquoted into 6 sterile 50 mL conical tubes. 10 mL of blood was slowly layered on top of the Ficoll Paque by holding the tube upright and resting the pipette tip at the inside edge of the tube and allowing the blood to slowly run down the side of the tube. Tubes were spun at 1700 rpm for 30 minutes at room temperature. The plasma layer above the leukocyte band was aspirated off and a pasteur pipette was used to lift off the leukocyte band and transfer it to a sterile 50 mL conical tube. Cells from each leukocyte gradiant tube were transferred to a separate 50 mL conical tube. Sterile PBS pH 7.4 was added to each 50 mL conical tube containing cells from leukocyte band to a volume of 50 mL. Tubes were spun at 1100 rpm for 10 minutes. Supernatant was aspirated off and the cells were resuspended in 50 mL PBS pH 7.4. Tubes were re-centrifuged at 1100 rpm for 10 minutes. Supernatant was aspirated off and the cells were resuspended in appropriate medium at a density of 5×10^7 cells/mL or 2×10^6 cells/mL.
CD 4+T-cell Preparation: Cells from Leukocyte preparation were resuspended in sterile PBS pH 7.4 supplemented with 2-6% Fetal Bovine Serum (FBS) at a density of 5×10^7 cells/mL. Cells were then ready for isolation.
100 μL of antibody cocktail (Stem Cell Technologies, Catalogue No. 14062) was added for each mL of cells and mixed well. Cells+Ab cocktail was incubated on ice for 30 minutes. After 30 minute incubation, 60 μL of magnetic colloid was added for each mL of cells, and mixed well. Cells+Ab cocktail+magnetic colloid were incubated on ice for 30 minutes. After a final 30 minute incubation cells were ready for magnetic cell separation.
Sample was loaded into the top of a column. The stopcock was turned to allow the flow of media down through the column, and the media was collected into a collection tube. PBS supplemented with 2-6% FBS was added to the column until three column volumes had been collected (not including the volume of the start sample). Cells were washed, counted, and resuspended in RPMI 1640 with 10% FBS+2 mM L-glutamine at a density of 1×10^6 cells/mL.
CD4+ T-cells were isolated as described above. Cells were suspended in RPMI 1640 media (Stem Cell Technologies Inc.; Catalogue No. 36750) with 10% FBS+2 mM L-glutamine at a density of 1×10^6 cells/mL. Cells were maintained on ice as test compounds were prepared. Test compounds were prepared in a sterile 96-well assay plate at 50×the final desired test concentration, all wells contained an equal amount of dimethylsulfoxide vehicle. 500 μL of CD4^+ T-cells were added to each well of 24-well assay plate. 10 μL of each test compound working solution was added to the appropriate wells; two wells were left as stimulated and non-stimulated controls. 10 μL of concanavalin A (50×the final concentration) at 10 μg/mL was added to each well with the exception of the non-stimulated control wells. Cells were incubated at 37° C. for 48 hours. Conditioned media is then assessed by ELISA for the quantity of IL-2, […], TNFα and IL-10 present.
Tables 5A, 5B and 5C represent a synopsis of data across individuals with respects to the potency of compounds of the invention in their ability to inhibit cytokines that are likely to promote or depress a Th1 or Th2 response. […]

[4] = read-out: IC50 RANGE (μM) <1, ROS production, X marks this range
[5] = ROS production, X marks this range, read-out: IC50 RANGE (μM) 1-10
[6] = PDE3, platelet cell extract, X marks this range, read-out: IC50 range (μM) 10-100
[7] = PDE3, platelet cell extract, X marks this range, read-out: IC50 range (μM) 1-10

T1 sequence (Q14432 whole entry): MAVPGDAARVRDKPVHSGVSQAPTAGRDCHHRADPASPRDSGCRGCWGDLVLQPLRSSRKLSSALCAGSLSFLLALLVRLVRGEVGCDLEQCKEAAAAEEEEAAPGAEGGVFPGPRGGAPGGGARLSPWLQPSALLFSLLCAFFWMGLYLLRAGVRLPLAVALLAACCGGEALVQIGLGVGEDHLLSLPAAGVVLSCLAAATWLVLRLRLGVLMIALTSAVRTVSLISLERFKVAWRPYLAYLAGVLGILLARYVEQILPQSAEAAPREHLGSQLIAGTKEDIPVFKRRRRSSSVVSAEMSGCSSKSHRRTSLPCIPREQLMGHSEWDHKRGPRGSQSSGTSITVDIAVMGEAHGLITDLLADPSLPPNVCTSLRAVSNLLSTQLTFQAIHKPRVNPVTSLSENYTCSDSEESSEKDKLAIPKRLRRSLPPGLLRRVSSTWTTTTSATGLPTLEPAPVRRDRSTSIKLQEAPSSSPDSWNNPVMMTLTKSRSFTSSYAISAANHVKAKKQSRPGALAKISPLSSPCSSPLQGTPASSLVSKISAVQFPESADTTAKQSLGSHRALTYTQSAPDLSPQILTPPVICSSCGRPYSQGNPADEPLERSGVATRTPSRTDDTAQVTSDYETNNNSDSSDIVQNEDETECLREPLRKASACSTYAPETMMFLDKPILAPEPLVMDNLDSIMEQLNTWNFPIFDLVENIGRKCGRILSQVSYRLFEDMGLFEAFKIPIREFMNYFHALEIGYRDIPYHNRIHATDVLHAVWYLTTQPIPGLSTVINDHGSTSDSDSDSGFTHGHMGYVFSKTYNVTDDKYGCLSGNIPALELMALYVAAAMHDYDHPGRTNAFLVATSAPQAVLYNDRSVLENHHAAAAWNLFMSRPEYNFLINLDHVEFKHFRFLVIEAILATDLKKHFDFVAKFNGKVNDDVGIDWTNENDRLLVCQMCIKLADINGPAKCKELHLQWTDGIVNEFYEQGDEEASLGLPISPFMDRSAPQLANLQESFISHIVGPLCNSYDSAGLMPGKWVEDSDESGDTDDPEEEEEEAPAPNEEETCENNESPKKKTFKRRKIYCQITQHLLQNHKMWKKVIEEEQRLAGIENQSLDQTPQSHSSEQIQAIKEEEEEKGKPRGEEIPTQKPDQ

For `COc1cc(C[C@@H]2CC(c3ccc(OC)c(OC)c3)COC2=O)ccc1O` (mixture of isomers) [Compound 12], the IC50 [1, 4] was < 1 µM, the IC50 ([2]; human platelets, read-out: IC50 PDE 3) was 45 µM and the inhibition at 100 µM ([2]; read-out: % inhibition by 100 μM test compound 50-75, X marks this range) was 50 to 75%.
`COc1cc(C[C@@H]2C[C@@H](c3ccc(OC)c(OC)c3)COC2=O)ccc1O` [Compound 30] showed an IC50 [1, 5] of 1 to 10 µM, an IC50 [3] of 0.2 to 2 µM and an IC50 [2, 6] of 10 to 100 µM.
`COc1ccc([C@@H]2CCC(=O)OC2)cc1OC1CCCC1` [Compound 41] was tested, and the IC50 [1, 4] was < 1 µM, the IC50 ([2]; PDE3, platelet cell extract, X marks this range) was > 100 µM and the inhibition at 100 µM ([2]; read-out: % inhibition by 100 μM test compound 25-50, X marks this range) was 25 to 50%.
`COc1cc(CC2C[C@@H](c3ccc(OC)c(OC4CCCC4)c3)COC2=O)ccc1O` (stereo partly drawn) [Compound 43] was tested, and the IC50 [1, 4] was < 1 µM, the IC50 [3] was 0.2 to 2 µM and the IC50 [2, 6] was 10 to 100 µM. The inhibition at 100 µM ([2]; read-out: % inhibition by 100 μM test compound 75-100, X marks this range) was 75 to 100%.
`COc1ccc([C@H]2CNC(=O)C(Cc3ccc(OCc4ccccc4)c(OC)c3)C2)cc1OC` (stereo partly drawn) [Compound 54] showed an IC50 [1, 5] of 1 to 10 µM, an IC50 [3] of 0.2 to 2 µM and an IC50 [2, 7] of 1 to 10 µM.
Work on `COc1cc(CC2C[C@@H](c3ccc(OC)c(OC)c3)CNC2=O)ccc1O` (stereo partly drawn) [Compound 55] yielded an IC50 [1, 5] of 1 to 10 µM, an IC50 [3] of 0.2 to 2 µM and an IC50 [2, 7] of 1 to 10 µM.
`COc1cc(CC2C[C@@H](c3ccc(OC)c(OC4CCCC4)c3)CNC2=O)ccc1O` (stereo partly drawn) [Compound 62] showed an IC50 ([1]; ROS production, X marks this range, read-out: IC50 RANGE (μM) 10-100) of 10 to 100 µM, an IC50 [3] of 0.2 to 2 µM and an IC50 [2, 7] of 1 to 10 µM.
With `COc1ccc(C2CNC(=O)C2)cc1OC1CCCC1` (stereo not drawn) [Rolipram, reference compound] the IC50 [3] was 0.2 to 2 µM and the “effect in PDE3 assay” value ([2]; platelet cell extract, cAMP as substrate) was “without effect”.
